Patent US9657088B2, “Anti-HSV antibody” (priority 2009, dated 2017)
Read-outs that look alike come from different tables or passages of the source.

What was measured:
gB derived peptides = assay type: binding, HSV-1
HSV-1 F [1] = experiment: Pre- versus post-attachment neutralization assay; assay type: cell-based; details: 100 TCID50 HSV-1, 4° C., Vero cells
Protocol: The highest antibody and polyvalent human IgG titer, respectively, preventing virus induced cytopathic effect (CPE) in ten individual inoculated cell monolayers to 100% and 50% relative to controls were determined after 72 h incubation at 37° C. and being considered as the endpoint. Standard errors of the mean of three independent experiments were <0.1.
Neutralization titers were determined after 72 h as described in the standard neutralization assay above.

HSV-2 G = experiment: Virus neutralization end-point dilution assay on Vero cells, 100 TCID50; assay type: cell-based; details: 100% reduction of CPE, 72 h
Protocol: (§1) Neutralizing activity of antibodies were determined by a standard end-point dilution assay using Vero cells grown as monolayers in microtiter plates. […] After 72 h incubation at 37° C. the antibody concentration required to prevent the formation of virus-induced CPE to 100% was determined as complete neutralization titer.
(§2) Neutralizing activity of antibodies was determined by end-point dilution assay as described previously (16). Briefly, serial dilutions of antibodies were incubated with 100 TCID50 of HSV-1 or HSV-2 for 1 h at 37° C. in cell culture medium. The antibody virus inoculum was applied to Vero cell monolayers grown in microtiter plates and cytopathic effect (CPE) was scored after 72 h incubation at 37° C. The antibody concentration required for reducing virus-induced CPE by 100% was determined as complete neutralization titer. […] For control purposes virus without antibody and antibody alone was used to induce maximal CPE or no CPE, respectively.

HSV-1 F [2] = experiment: as above; assay type: cell-based; details: Table 4, read-out: concentration required for 50% neutralization
Protocol: as §1, §2

[3] = tested on: HSV-1 wild-type strains and gB mutant viruses; experiment: Mouse protection experiments with gB mutant viruses; assay type: in vivo, C57BL/6 mice; details: i.p. 24 hours before

Substance: mAb 2c: murine monoclonal IgG2a antibody specific for glycoprotein B of HSV1 and HSV2; VH SEQ ID NO: 9, VL SEQ ID NO: 10
- binding strength to duotope (gB derived peptides; duotope FED-βA-βA-FYGYRE): almost saturation of the fluorescence signal intensity
- binding strength to duotope (gB derived peptides; duotope YSQFMG-βA-FYGYRE versus peptide 172[…]184): only slightly increased
- pre-attachment versus post-attachment neutralization (HSV-1 F [1]): Equal neutralization efficacy
- Concentration for complete neutralization of 100 TCID50 (HSV-2 G): 31 nM
- IC50 (HSV-1 F [2]): 4.3 nM
- protective effect in vivo ([3]; mice inoculated with mutants R126 (Y303N), R1375 (R304Q), B4.1 (E305K)): ineffective
- protective effect in vivo ([3]; mice inoculated with mutants R1435 (H308Y) or R233 (R328H) or wild-type viruses): effective
